Legend:
ovarian granulosa cells = assay: Protection of primary ovarian granulosa cells against doxorubicin (DOX) cytotoxicity, CCK-8; format: cell-based, mice; conditions: DOX alone, final concentration 25 μg/mL
Procedure: In-vitro-Culture of granulosa cells of mice. Female ICR mice aged 21 to 23 days were euthanized by dislocation after anesthesia. After disinfecting the abdominal skin with 75% alcohol, bilateral ovaries were taken out and antral follicles were punctured under dissecting microscope to release granulosa cells into a M2 culture medium containing 20% FBS. Then the culture medium was centrifuged at 1,000 revolutions per minute for 5 minutes. Supernatant was discarded, and residue was washed three times with a culture medium, and then was placed in a 96 well plate in an alpha MEM culture medium containing 5% FBS for further culture. […]
After the granulosa cells in a 96 well plate prolificated to 70% to 80%, the culture medium was taken out, and 10 μL of the test drug (C1 (a compound represented by Formula I, m is 3, R1 is OH, and R2 is H), C2 (a compound represented by Formula I, m is 3, R1 is Cl, and R2 is H), C3 (a compound represented by Formula I, m is 3, R1 is OCH3, and R2 is H), C4 (a compound represented by Formula I, m is 3, R1 is H, and R2 is H)), 10 μL of DOX with a final concentration of 25 μg/mL, and 80 μL of fresh culture medium were sequentially added. […] The absorbance (OD) value (450 nm) of each well was measured using an enzyme-linked immunosorbent assay (ELISA) reader to calculate the survival rate of granulosa cells of mice. […]

SH-SY5Y cells = assay: Annexin V/PI dual staining, apoptosis by flow cytometry in H2O2 injured SH-SY5Y cells; format: cell-based, human; conditions: NAC 1 mM pre-treated 1 hour, then H2O2 400 μM 24 hours; P<0.05
Procedure: (§1) The culture of cells. Human neuroblastoma cells SH-SY5Y (American Type Culture Collection, Manassas, VA, USA) were cultivated in an incubator at 37° C. and a volume fraction of 5% CO2. The culture medium contains DMEM/F-12, 2 mM glutamine, 100 U/ml penicillin, 100 μg/ml streptomycin, and 10% FBS. Cells were seeded into a 96 well plate at a density of 2×10^4 cells per well and subjected to proliferation until 90%.
(§2) The cells were randomly divided into four groups: blank control group, hydrogen peroxide group (Veh), Mep-S group, and NAC group (a neuroprotective drug used as a positive control). The cells of Mep-S group (1 μM) and NAC group (1 mM) were pre-treated with corresponding concentrations of drugs for 1 hour. Then, except for the blank control group which was given physiological saline, the cells of all other groups were incubated with H2O2 (400 μM) for 24 hours.
Annexin V/PI dual staining method was used to detect the protective effect of Mep-S on cellular oxidative damage. Cell apoptosis was measured by flow cytometry using FITC Annexin V apoptosis detection kit (BD Pharmingen, Franklin Lakes, NJ, USA). The operation was performed following the instructions.

[1] = system: Keap1-Nrf2/ARE signaling pathway; assay: Western blot of Keap1-Nrf2/ARE pathway related proteins in H2O2 induced SH-SY5Y nerve cell injury model; format: cell-based, human; conditions: NAC 1 mM pre-treated 1 hour, then H2O2 400 μM 24 hours, P<0.05
Procedure: as §1, §2
Western blot was used to detect the expression levels of neuronal apoptosis protein (Caspase3) and Keap1-Nrf2/ARE pathway related proteins (Keap1, Nrf2, HO-1, NQO-1, etc.) in each group. The bands were visualized using enhanced chemiluminescence (Pierce, Rockford, IL, USA) and quantitative analysis was performed using Image Studio Lite 5.2.

[2] = compared with H2O2 damage group

## COc1cccc2c1C(=O)c1c(O)c3c(c(O)c1C2=O)C[C@@](O)(C(=O)CO)C[C@@H]3O[C@H]1C[C@H](N)[C@H](O)[C@H](C)O1 [DOX, doxorubicin]
Ovarian granulosa cells; 24 hours, CCK-8 (positive control group)
  Cell survival rate (%): 61.8%
Ovarian granulosa cells; p<0.01 versus negative control
  growth of granulosa cells (in words): significantly inhibited the growth

## CC(=O)N[C@@H](CS)C(=O)O [NAC]
SH-SY5Y cells
  apoptosis rate of SH-SY5Y cells: significantly reduces the apoptosis rate
[1]
  phosphorylation level of Akt: significantly restores its expression level
[1]; [2]
  level of HO-1 protein: significantly inhibits the decrease
  level of Keap 1 protein: inhibits the increase
  level of NQO-1 protein: significantly inhibits the decrease
  level of Nrf2 protein in the cell nucleus: significantly inhibits the decrease
  level of Nrf2 protein in the cytoplasm: inhibits the increase

From patent US20250345344A1, “NOVEL NRF2 ACTIVATOR AND USE THEREOF” (SHANGHAI INSTITUTE FOR BIOMEDICAL AND PHARMACEUTICAL …, priority 2022, published 2025)
